Measured values: PubChem BioAssay AID2060512 (Molecular Pharmacology Branch, DTP, NCI, 2025)

Test system: 186277-243-T-J2-PDC complex spheroid viability
Test: Anticancer human tumor 186277-243-T-J2-PDC patient-derived colon adenocarcinoma cell line growth inhibition [GQUAD]
Settings: for IC50: curve of first compound; for viability, T/C: stronger effect = lower value
Outline: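 Multi-cell-type spheroids of tumor cells with HUVEC and mesenchymal stem cells, treated with drug combinations. Concentrations descend in half-log steps from near clinical Cmax, or from 10 microM where Cmax is unknown; viability read-out.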

[1] = second compound 0.0316 µM, first compound 0.0316 µM
[2] = second compound 0.0316 µM, first compound 0.316 µM
[3] = second compound 0.1 µM, first compound 0.0316 µM
[4] = second compound 0.1 µM, first compound 0.316 µM
[5] = second compound 0.316 µM, first compound 0.0316 µM
[6] = second compound 0.316 µM, first compound 0.316 µM
[7] = second compound 1 µM, first compound 0.0316 µM
[8] = second compound 1 µM, first compound 0.316 µM
[9] = second compound 3.16 µM, first compound 0.0316 µM
[10] = second compound 3.16 µM, first compound 0.316 µM
[11] = second compound 10 µM, first compound 0.0316 µM
[12] = second compound 10 µM, first compound 0.316 µM
[13] = second compound 0.0316 µM, first compound 0.1 µM
[14] = second compound 0.0316 µM, first compound 1 µM
[15] = second compound 0.0316 µM, first compound 3.16 µM
[16] = second compound 0.0316 µM, first compound 10 µM
[17] = second compound 0.1 µM, first compound 0.1 µM
[18] = second compound 0.1 µM, first compound 1 µM
[19] = second compound 0.1 µM, first compound 3.16 µM
[20] = second compound 0.1 µM, first compound 10 µM
[21] = second compound 0.316 µM, first compound 0.1 µM
[22] = second compound 0.316 µM, first compound 1 µM
[23] = second compound 0.316 µM, first compound 3.16 µM
[24] = second compound 0.316 µM, first compound 10 µM
[25] = second compound 1 µM, first compound 0.1 µM
[26] = second compound 1 µM, first compound 1 µM
[27] = second compound 1 µM, first compound 3.16 µM
[28] = second compound 1 µM, first compound 10 µM
[29] = second compound 3.16 µM, first compound 0.1 µM
[30] = second compound 3.16 µM, first compound 1 µM
[31] = second compound 3.16 µM, first compound 3.16 µM
[32] = second compound 3.16 µM, first compound 10 µM
[33] = second compound 10 µM, first compound 0.1 µM
[34] = second compound 10 µM, first compound 1 µM
[35] = second compound 10 µM, first compound 3.16 µM
[36] = second compound 10 µM, first compound 10 µM
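Also: spheroids exposed to drugs for 7 days.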
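For viability, T/C in this document: 100% = DMSO vehicle control viability.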

Cn1ncnc1[C@H]1c2n[nH]c(=O)c3cc(F)cc(c23)N[C@@H]1c1ccc(F)cc1 + Cc1cnc(CNC(=O)c2c(=O)c3ccc(N4CCCN(C)CC4)nc3n3c2sc2ccccc23)cn1
IC50 (second compound 0.0316 µM): > 316 nM
IC50 (second compound 0.1 µM): > 316 nM
IC50 (second compound 0.316 µM): > 316 nM
IC50 (second compound 1 µM): > 316 nM
IC50 (second compound 3.16 µM): > 316 nM
IC50 (second compound 10 µM): < 0.999 nM
viability, T/C (second compound 0.0316 µM, first compound 0.000999 µM): 107%
viability, T/C (second compound 0.0316 µM, first compound 0.00316 µM): 101%
viability, T/C (second compound 0.0316 µM, first compound 0.00999 µM): 108%
viability, T/C [1]: 78.6%
viability, T/C (second compound 0.0316 µM, first compound 0.0999 µM): 85.2%
viability, T/C [2]: 78.2%
viability, T/C (second compound 0.1 µM, first compound 0.000999 µM): 102%
viability, T/C (second compound 0.1 µM, first compound 0.00316 µM): 103%
viability, T/C (second compound 0.1 µM, first compound 0.00999 µM): 84.3%
viability, T/C [3]: 94.8%
viability, T/C (second compound 0.1 µM, first compound 0.0999 µM): 85.5%
viability, T/C [4]: 71.6%
viability, T/C (second compound 0.316 µM, first compound 0.000999 µM): 75.7%
viability, T/C (second compound 0.316 µM, first compound 0.00316 µM): 79.2%
viability, T/C (second compound 0.316 µM, first compound 0.00999 µM): 80.1%
viability, T/C [5]: 77%
viability, T/C (second compound 0.316 µM, first compound 0.0999 µM): 73.1%
viability, T/C [6]: 70.3%
viability, T/C (second compound 1 µM, first compound 0.000999 µM): 65.6%
viability, T/C (second compound 1 µM, first compound 0.00316 µM): 57.3%
viability, T/C (second compound 1 µM, first compound 0.00999 µM): 59.2%
viability, T/C [7]: 59.4%
viability, T/C (second compound 1 µM, first compound 0.0999 µM): 62.5%
viability, T/C [8]: 52.8%
viability, T/C (second compound 3.16 µM, first compound 0.000999 µM): 48.1%
viability, T/C (second compound 3.16 µM, first compound 0.00316 µM): 55.6%
viability, T/C (second compound 3.16 µM, first compound 0.00999 µM): 52.5%
viability, T/C [9]: 51.4%
viability, T/C (second compound 3.16 µM, first compound 0.0999 µM): 54%
viability, T/C [10]: 48.7%
viability, T/C (second compound 10 µM, first compound 0.000999 µM): 46%
viability, T/C (second compound 10 µM, first compound 0.00316 µM): 42.1%
viability, T/C (second compound 10 µM, first compound 0.00999 µM): 43.4%
viability, T/C [11]: 46.9%
viability, T/C (second compound 10 µM, first compound 0.0999 µM): 55.7%
viability, T/C [12]: 42.5%

CC1COCCN1c1cc(C2(S(C)(=N)=O)CC2)nc(-c2ccnc3[nH]ccc23)n1 (stereo unspecified) + Cc1[nH]c2ccc(F)cc2c1-c1nc2c3cccnc3c3ncccc3c2[nH]1
IC50 (second compound 0.0316 µM): 791 nM
IC50 (second compound 0.1 µM): 839 nM
IC50 (second compound 0.316 µM): 1210 nM
IC50 (second compound 1 µM): 1600 nM
IC50 (second compound 3.16 µM): 1140 nM
IC50 (second compound 10 µM): 1210 nM
viability, T/C [1]: 109%
viability, T/C [13]: 104%
viability, T/C [2]: 105%
viability, T/C [14]: 35.6%
viability, T/C [15]: 11.1%
viability, T/C [16]: 10.7%
viability, T/C [3]: 109%
viability, T/C [17]: 88.3%
viability, T/C [4]: 87.7%
viability, T/C [18]: 42.6%
viability, T/C [19]: 13.2%
viability, T/C [20]: 4.44%
viability, T/C [5]: 87.7%
viability, T/C [21]: 89.4%
viability, T/C [6]: 117%
viability, T/C [22]: 58.1%
viability, T/C [23]: 10.9%
viability, T/C [24]: 8.17%
viability, T/C [7]: 91.1%
viability, T/C [25]: 85.8%
viability, T/C [8]: 101%
viability, T/C [26]: 74.2%
viability, T/C [27]: 15%
viability, T/C [28]: 8.18%
viability, T/C [9]: 102%
viability, T/C [29]: 92.4%
viability, T/C [10]: 97.5%
viability, T/C [30]: 53.5%
viability, T/C [31]: 16.3%
viability, T/C [32]: 7.22%
viability, T/C [11]: 90.1%
viability, T/C [33]: 98.2%
viability, T/C [12]: 96.9%
viability, T/C [34]: 57.2%
viability, T/C [35]: 12.8%
viability, T/C [36]: 6.82%

O=C(c1cc(Cc2n[nH]c(=O)c3ccccc23)ccc1F)N1CCN(C(=O)C2CC2)CC1 + CN(C)c1ccc(Nc2c3ccc(NC(=O)CCN4CCCC4)cc3nc3cc(NC(=O)CCN4CCCC4)ccc23)cc1
IC50 (second compound 0.0316 µM): > 10000 nM
IC50 (second compound 0.1 µM): > 10000 nM
IC50 (second compound 0.316 µM): > 10000 nM
IC50 (second compound 1 µM): > 10000 nM
IC50 (second compound 3.16 µM): > 10000 nM
IC50 (second compound 10 µM): > 10000 nM
viability, T/C [1]: 116%
viability, T/C [13]: 122%
viability, T/C [2]: 115%
viability, T/C [14]: 93.5%
viability, T/C [15]: 81.8%
viability, T/C [16]: 70.2%
viability, T/C [3]: 117%
viability, T/C [17]: 118%
viability, T/C [4]: 115%
viability, T/C [18]: 99%
viability, T/C [19]: 103%
viability, T/C [20]: 53.5%
viability, T/C [5]: 97.7%
viability, T/C [21]: 111%
viability, T/C [6]: 102%
viability, T/C [22]: 95.1%
viability, T/C [23]: 111%
viability, T/C [24]: 63.4%
viability, T/C [7]: 98.2%
viability, T/C [25]: 100%
viability, T/C [8]: 105%
viability, T/C [26]: 110%
viability, T/C [27]: 89.9%
viability, T/C [28]: 75.9%
viability, T/C [9]: 90.4%
viability, T/C [29]: 109%
viability, T/C [10]: 95.3%
viability, T/C [30]: 100%
viability, T/C [31]: 78.7%
viability, T/C [32]: 64.5%
viability, T/C [11]: 105%
viability, T/C [33]: 116%
viability, T/C [12]: 120%
viability, T/C [34]: 111%
viability, T/C [35]: 95.9%
viability, T/C [36]: 54.9%
